Two compounds from PMC8116058, “De novo macrocyclic peptides dissect energy coupling of a heterodimeric ABC transporter by multimode allosteric inhibition” (eLife, 2021) can be followed below.

Positions of bridges follow the written chain, without caps; N, C: chain ends. Non-standard residues stand in square brackets, D forms with d. Residues, ends and D or L forms follow the SMILES beside them. *: point of attachment. 5FAM = O=C1OC2(c3ccc(O)cc3Oc3cc(O)ccc32)c2ccc(C(=O)*)cc21; βAla = NCCC(=O)O

For test [1], the system named is TmrAB. Description: ATP binding by scintillation proximity assay (SPA). Particulars: CP^B 1 µM; for Effect on ATP binding to TmrAB: SPA; for Signal, ATP binding: TmrAB 0.2 µM on SPA beads, ATP 3 µM traced with 3H-ATP, 30 min on ice, without CP 5.06; for Signal, Background: after release of TmrAB from beads with imidazole 200 mM. Further details: species or system Thermus thermophilus. An excerpt:
To elucidate the mechanistic basis for the inhibition of ATP hydrolysis and substrate transport, we investigated the effects of CPs on substrate binding. In the first approach, fluorescent CP^Fs were used as reporters in fluorescence polarization. […] In addition, we examined the impact of CP^Bs on ATP binding to TmrAB by scintillation proximity assays (SPA) (Figure 4C). […] Taken together, CPs are high-affinity allosteric inhibitors of TmrAB that leave ATP binding and substrate interaction largely unaffected, while impairing ATP hydrolysis and substrate translocation across the membrane.
Figure 4. […] (A) CP^Fs binding TmrAB is not affected by substrate peptide binding. […] For competition, C4^ATTO655 peptide (2 µM) or R9LQK peptide (200 µM) were added. (B) Binding of C4F peptide is not affected by CP^Bs. C4F peptides (50 nM) were mixed with TmrAB (4 µM), and fluorescence anisotropy was monitored as described in (A). For competition, C4^ATTO655 (10 µM) or CP^Bs (6 µM) were added. […] TmrAB (0.2 µM) were immobilized on SPA beads and incubated with ATP (3 μM, traced with ^3H-ATP) in the presence and absence of CP^Bs (1 µM each) for 30 min on ice. ATP binding was monitored by SPA. Background values were determined after releasing TmrAB complexes from the beads by adding imidazole (200 mM). The background signal in the absence of CP^Bs was set to 0 cpm. […] As this is an equilibrium experiment, this can be rationalized by the fact that CP13 stabilizes the ATP-bound OF conformer. Figure 4—source data 1. Source data for Figure 4.
DDM-solubilized TmrAB (0.2 µM) was incubated with ATP (2.8 μM), [2,5’,8-^3H(N)]-ATP (0.2 µM, ^3H-ATP, PerkinElmer), MgCl2 (3 mM), and CP^Bs (1 µM) for 30 min on ice. Copper-chelated SPA beads (PerkinElmer) were added to a final concentration of 5 mg/ml. Total binding was determined at 20°C in cpm mode (Wallac MicroBeta). Bound TmrAB complexes were eluted by adding 200 mM of imidazole, and background binding was determined. Data represent mean ± SD from three experiments.
Background: In a scintillation proximity assay essentially only radioactivity close to the scintillant gives light.

In test [2] the test system is wild-type TmrAB in liposomes. In words: Single-liposome flow cytometry transport assay. In kind it is biochemical, Thermus thermophilus. Particulars: for Peptide transport in two successive IF-to-OF cycles: 5 min 45°C / 60 min 4°C, repeated; for Effect on C4^ATTO655 peptide translocation / Transported C4^ATTO655, Peptides/liposome: CP^F 1 µM, 5 min 45°C; for Transported C4^ATTO655, Peptides/liposome: TmrAB 0.4 µM, C4^ATTO655 1 µM, ATP 3 mM, ATP without CP 84.57, ADP 3.52; for Peptides/liposome, two consecutive transport cycles: ADP background corrected. As to the method: To investigate whether an IF-to-OF transition and conformational arrest by CP13^F or CP14^F can still result in a productive substrate translocation, we followed peptide transport by wild-type TmrAB by single liposome-based flow cytometry (Figure 6A). […] CPs block multiple-turnover transport monitored by quantitative flow cytometry. (A) Single turnover by IF-to-OF switch monitored by single-liposome flow cytometry. […] Transport reactions were stopped by the addition of EDTA (10 mM). 100,000 proteoliposomes were analyzed by flow cytometry monitoring fluorescein and ATTO655 intensities. […] (C, D) Slowdown of multiple-turnover substrate transport. […] Transported peptides per liposomes were evaluated and corrected by ADP background levels as described in (B). Transport kinetics were fitted monoexponentially. […] (E) Two consecutive transport cycles. […] Transported peptides per liposome were evaluated as described in (B) and corrected by background levels in the presence of ADP. […] Figure 6-source data 1. Source data for Figure 6. Figure 6-figure supplement 1. Linear regression of quantitative flow cytometry analysis. (A) Gating strategy. Liposomes were selected according to side and forward scatter areas. Single liposomes were gated based on the height of forward scatter correlated to the area of forward scatter. […] Detergent was removed, and liposomes were extensively washed by centrifugation. […] Equal concentrations of fluorescein served as loading control (right). (C) Linear regression. […] Mean values ± SD (n = 3) are shown. Figure 6-figure supplement 1-source data 1. Source Data for Figure 6-figure supplement 1. [drawing 5] […] To confirm the conformational arrest of wild-type TmrAB by CP13^F and the slow turnover in the presence of CP14^F, we examined two successive cycles of conformational transitions by flow cytometry. […] Both steps were repeated to yield two consecutive cycles of conformational transitions. […] Taken together, the macrocyclic peptides CP13 and CP14 stabilize a pre-hydrolysis state, thus allowing a single-turnover translocation along the IF-to-OF switch. […] Transport reactions were stopped by adding EDTA (10 mM). […] For regression analysis, liposomes were loaded with increasing amounts of peptides to convert the fluorescence intensities into the number of peptides per liposome ([Stefan et al., 2020]). […] Equal amounts of carboxyfluorescein (Sigma-Aldrich) served as loading control. Detergent was removed by adding SM-2 Bio-beads (Bio-Rad) as detailed above. Liposomes were harvested for 30 min at 270,000 g and washed three times by centrifugation. Generally, 20,000-100,000 proteoliposomes were selected according to sideward and forward scatter areas. Single events were selected based on the height of forward scatter plotted against the area of forward scatter. […] Data represent mean ± SD from three experiments.
(Flow cytometry measures light scatter and fluorescence of single cells or particles in a stream.)

The mark [3] stands for this setting: time 5 min (after first 5 min at 45°C).
The mark [4] stands for this setting: time 65 min (after 60 min at 4°C).
Setting [5] is: time 70 min (after second 5 min at 45°C).
Where [6] appears, read: time 130 min (after second 60 min at 4°C).

Consider `CC(C)C[C@@H]1NC(=O)[C@H](Cc2ccccc2)NC(=O)CNC(=O)[C@H](CO)NC(=O)[C@H](Cc2ccccc2)NC(=O)[C@H](CC(=O)O)NC(=O)[C@@H]2CCCN2C(=O)[C@H]([C@@H](C)O)NC(=O)[C@@H](Cc2ccc(O)cc2)NC(=O)CSC[C@@H](C(=O)NCC(=O)N[C@@H](CO)C(=O)NCCC(=O)NCCC(=O)N[C@@H](CCCNC(=N)N)C(=O)N[C@@H](CCCCNC(=O)c2ccc3c(c2)C(=O)OC32c3ccc(O)cc3Oc3cc(O)ccc32)C(N)=O)NC(=O)[C@H](C)NC(=O)[C@H](CC(N)=O)NC(=O)[C@H](CCCNC(=N)N)NC(=O)[C@H](CC(C)C)NC(=O)[C@H](Cc2ccccc2)NC(=O)[C@H](C)NC1=O` [CP12] ({CH2CO}-[dY]TPDFSGFLAFLRNACGS[βAla][βAla]RK(5FAM)-NH2; thioether N-16), for which the “Effect on ATP binding to TmrAB” value in test [1] is given as “no effect on ATP binding”. For the same compound, in test [1], the “Signal, ATP binding” value worked out at 5.02 cpm*10^3. Moreover, the “Signal, Background” value in test [1] turned out to be 0.08 cpm*10^3. Besides, the “Peptide transport in two successive IF-to-OF cycles” value in test [2] was “peptide translocation was completely abrogated”. In test [2], the “Effect on C4^ATTO655 peptide translocation” value is given as “completely prevented C4^ATTO655 peptide translocation”. Also, the “Transported C4^ATTO655, Peptides/liposome” value in test [2] is given as 4.93 Peptides/liposome. In addition, the “Peptides/liposome, two consecutive transport cycles” value in test [2] (time 0 min) was determined as 0.00 Peptides/liposome; in test [2] (setting [3]), 1.11 Peptides/liposome; in test [2] (setting [4]) it was 1.17 Peptides/liposome; in test [2] (setting [5]) it was 1.70 Peptides/liposome; in test [2] (setting [6]), 1.01 Peptides/liposome.

`CC[C@H](C)[C@@H]1NC(=O)[C@H]([C@@H](C)O)NC(=O)[C@H](CC(C)C)NC(=O)[C@H](Cc2c[nH]c3ccccc23)NC(=O)[C@H](Cc2ccccc2)NC(=O)[C@H](CC(N)=O)NC(=O)[C@H](CCC(=O)O)NC(=O)[C@H](CC(C)C)NC(=O)[C@H](CS)NC(=O)[C@H](Cc2c[nH]cn2)NC(=O)[C@H](CO)NC(=O)[C@@H](Cc2ccc(O)cc2)NC(=O)CSC[C@@H](C(=O)NCC(=O)N[C@@H](CO)C(=O)NCCC(=O)NCCC(=O)N[C@@H](CCCNC(=N)N)C(=O)N[C@@H](CCCCNC(=O)c2ccc3c(c2)C(=O)OC32c3ccc(O)cc3Oc3cc(O)ccc32)C(N)=O)NC(=O)[C@H](CC(C)C)NC1=O` [CP6] ({CH2CO}-[dY]SHCLENFWLTILCGS[βAla][βAla]RK(5FAM)-NH2; thioether N-14): in test [1], the “Effect on ATP binding to TmrAB” value is listed as “only minor effects on ATP binding”; the “Signal, ATP binding” value worked out at 4.22 cpm*10^3; the “Signal, Background” value was -0.04 cpm*10^3. Also, in test [2], the “Peptide transport in two successive IF-to-OF cycles” value is reported as “peptide translocation was completely abrogated”; the “Effect on C4^ATTO655 peptide translocation” value was “completely prevented C4^ATTO655 peptide translocation”; the “Transported C4^ATTO655, Peptides/liposome” value came out at 4.74 Peptides/liposome. For the same compound, in test [2] (time 0 min), the “Peptides/liposome, two consecutive transport cycles” value is on record as 0.00 Peptides/liposome. The “Peptides/liposome, two consecutive transport cycles” value in test [2] (setting [3]) is reported as 0.17 Peptides/liposome. The “Peptides/liposome, two consecutive transport cycles” value in test [2] (setting [4]) is 0.01 Peptides/liposome. Besides, the “Peptides/liposome, two consecutive transport cycles” value in test [2] (setting [5]) is listed as 1.93 Peptides/liposome. Further, the “Peptides/liposome, two consecutive transport cycles” value in test [2] (setting [6]) was 1.54 Peptides/liposome.
